What all share (assay type): cell-based
For assay [1], the system named is HeLa. In words: Inhibition of Golgi mannosidase in human HeLa cells assessed as high mannose type N-glycans accumulation by measuring increase in fluorescence intensity using ConA-AF488 at 10 uM by fluorescence microscopy analysis (reference value: 100%). Particulars: values are per cent of control.
Assay [2] has as its system HeLa. As to the kind of experiment: Inhibition of Golgi mannosidase in human HeLa cells assessed as high mannose type N-glycans accumulation by measuring increase in fluorescence area using ConA-AF488 at 10 uM by fluorescence microscopy analysis (reference value: 100%). The following applies: values are per cent of control.
The test system of assay [3] is HeLa. As to the kind of experiment: Inhibition of Golgi mannosidase in human HeLa cells assessed as high mannose type N-glycans accumulation by measuring reduction in cell length using ConA-AF488 at 10 uM by fluorescence microscopy analysis (reference value: 100%). The following applies: time day <=7.
The subject of assay [4] is OVCAR-3. In words: Inhibition of Golgi mannosidase in human OVCAR-3 cells assessed as inhibition of spheroid formation by measuring size at 10 uM upto 7 days by light microscopy analysis relative to control. Particulars: time day <=7.
For assay [5], the system named is HeLa. As to the kind of experiment: Inhibition of Golgi mannosidase in human HeLa cells assessed as intracellular high mannose type N-glycans accumulation by measuring increase in fluorescence intensity using ConA-AF488 at 10 uM by confocal laser scanning microscopy analysis.

11 compounds from ChEMBL document CHEMBL4725224, “A novel Golgi mannosidase inhibitor: Molecular design, synthesis, enzyme inhibition, and inhibition of spheroid formation” (Bioorg Med Chem, 2020) can be followed below.

The structures appear in SMILES notation. The source made the active and inactive calls. No cut-off for these calls is given here.

The term inhibition denotes the share of the control response that was lost under treatment.

For `CN(C)c1ccc(CNCCC(c2ccccc2)c2ccc3c(c2)OCO3)cc1` (centres undefined), the response, % of control in assay [1] and in assay [2] was 114% each time. For the same compound, the inhibition in assay [3] amounted to 23%.
Take `CN(C)c1ccc(CNCCC(c2ccccc2)c2ccccc2)cc1`: in assay [3], the inhibition stood at 32%.
With `COc1ccc(C(CCNCc2ccc(N(C)C)cc2)c2ccc3c(c2)OCO3)cc1` (centres undefined), the response, % of control in assay [2] stood at 148%. The inhibition in assay [3] amounted to 28%. For the same compound, the inhibition result in assay [4] and in assay [5] was “Active” each time.
For `Clc1ccc(CNCCC(c2ccccc2)c2ccc3c(c2)OCO3)cc1` (centres undefined), the response, % of control in assay [1] turned out to be 111%; in assay [2], 115%. The inhibition in assay [3] is 18%.
For `c1ccc(C(CCNCc2ccc3c(c2)OCO3)c2ccccc2)cc1`, in that order: 114%, 113% and 28%.
For `COc1ccc(C(CCNCc2ccc3c(c2)OCO3)c2ccc3c(c2)OCO3)cc1` (centres undefined), the response, % of control in assay [1] is 110%; in assay [2] it was 108%. For the same compound, the inhibition in assay [3] stood at 26%.
For the compound `c1ccc(C(CCNCc2ccc3c(c2)OCO3)c2ccc3c(c2)OCO3)cc1` (centres undefined), the response, % of control in assay [1] is 104%; in assay [2], 113%. In assay [3], the inhibition was 31%.
Turning to `O=C1N[C@@H]2[C@@H](O)[C@@H](O)[C@H](O)[C@@H](CO)N2C1=O`, the inhibition in assay [3] is 13%. In addition, in assay [4], the inhibition result was “inactive”. Besides, the inhibition entry in assay [5] is “Active”.
Consider `COc1ccc(C(CCNCc2ccc(Cl)cc2)c2ccc3c(c2)OCO3)cc1` (centres undefined), for which, in assay [2], the response, % of control amounted to 150%. Further, the inhibition in assay [3] was 27%.
With `c1ccc(CNCCC(c2ccccc2)c2ccc3c(c2)OCO3)cc1` (centres undefined), the inhibition in assay [3] is 21%.
In the case of `Clc1ccc(CNCCC(c2ccccc2)c2ccccc2)cc1`, the results for the response, % of control in assay [1] and in assay [2] were 134% and 127%, respectively. In addition, the inhibition in assay [3] was found to be 29%.
